Results as given in BigSolDB 2.1.

COc1ccc(Cl)cc1C(=O)NCCc1ccc(S(=O)(=O)NC(=O)NC2CCCCC2)cc1
solubility (mole fraction)
Conditions | 288.15 K | 293.15 K | 298.15 K | 303.15 K | 308.15 K | 313.15 K | 318.15 K | 323.15 K
in acetonitrile | 8e-05 | 0.000106 | 0.000144 | 0.000184 | 0.000231 | 0.0003 | 0.00043 | 0.000571
in isopropanol | 0.000106 | 0.000121 | 0.000168 | 0.000231 | 0.000309 | 0.000404 | 0.000577 | 0.000863
in methanol | 0.000181 | 0.000229 | 0.000289 | 0.000365 | 0.000451 | 0.000614 | 0.000941 | 0.00131
in n-propanol | 0.000155 | 0.000193 | 0.000237 | 0.000302 | 0.000428 | 0.000572 | 0.000751 | 0.00097
in water | 9.02e-08 | 1.02e-07 | 1.26e-07 | 1.57e-07 | 2.18e-07 | 3.04e-07 | 4.35e-07 | 7.67e-07
